Like-named read-outs stand apart in the source and are kept apart here. Starred links: 1 amine or outer side, 2 acyl side, 3 side chain; linkers in the order of their positions; H or OH if unused. Non-standard residues stand in square brackets, D forms with d. Residues, ends and D or L forms follow the SMILES beside them. *: point of attachment. X1 = O=C(CCCC[C@@H]1SC[C@@H]2NC(=O)N[C@@H]21)NCCCOCCOCCOCCCN*; pT = C[C@@H](OP(=O)(O)O)[C@H](N)C(=O)O; Suc = O=C(CCC(=O)[*:2])[*:1]
Columns and labels:
[1] = molecular target: T1, 14-3-3τ (Homo sapiens, UniProt P27348); assay: biochemical; assay type: binding
T1 construct: cDNAs encoding other full-length 14-3-3 isoforms β, τ, η, and σ were obtained as codon-optimized; made in house; host or cells: E. coli BL21(DE3)
T1 sequence (P27348 1-245): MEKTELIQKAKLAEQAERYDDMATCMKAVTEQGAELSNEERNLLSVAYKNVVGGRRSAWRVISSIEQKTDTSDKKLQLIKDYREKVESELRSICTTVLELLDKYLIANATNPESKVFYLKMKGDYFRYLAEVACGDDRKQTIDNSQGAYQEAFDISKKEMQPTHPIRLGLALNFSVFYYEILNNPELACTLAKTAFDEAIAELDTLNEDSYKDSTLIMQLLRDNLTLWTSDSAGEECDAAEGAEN
Experimental: (§1) The seven full-length human 14-3-3 isoforms, produced as fusions to a maltose-binding protein (MBP), were analyzed for their interaction with four phospho-PBMs from E6 proteins of HPV types 16, 18, 33, and 35 belonging to subgroups 1 and 2 (as defined in Supplementary Fig. 1). For comparison, we also measured two non-viral phospho-PBMs originating from protein kinase RSK1[28]. We used a competitive fluorescence polarization (FP) assay that measures the displacement of a fluorescent tracer phosphopeptide (here, derived from the HSPB6 protein) bound beforehand to 14-3-3, by an increasing amount of the peptide of interest.
(§2) For affinity measurements, full-length human 14-3-3 constructs with an N-terminal MBP fusion were used. Plasmids containing the cDNAs of the full-length 14-3-3 isoforms ε, γ, and ζ were received from Prof. Lawrence Banks. cDNAs encoding other full-length 14-3-3 isoforms β, τ, η, and σ were obtained as codon-optimized for E. coli expression synthetic genes from IDT Technologies (Coralville, Iowa, USA). All 14-3-3 isoforms were fused via a three-alanine linker to the C terminus of a mutant MBP carrying the following amino acid substitutions facilitating crystallization: D83A, K84A, K240A, E360A, K363A, and D364A[62]. All resulting clones were verified by sequencing. The MBP-fused proteins were expressed in E. coli BL21(DE3) with IPTG induction. Proteins were affinity purified on an amylose column and were further purified by ion-exchange chromatography (HiTrap Q HP, GE Healthcare). Unfused 14-3-3 isoforms devoid of the flexible C-terminal tails (14-3-3βΔC, 14-3-3τΔC 14-3-3εΔC) were expressed using IPTG induction and purified by subtractive IMAC and SEC[40]. Protein concentrations were determined by UV spectroscopy. The samples were supplemented with glycerol and TCEP before aliquoting and freezing in liquid nitrogen.
(§3) Unless otherwise stated, all phosphopeptide-binding measurements were performed using full-length 14-3-3 proteins fused to the C terminus of MBP, favoring optimal solubility and a standardized parallel purification scheme.
(§4) FP was measured with a PHERAstar (BMG Labtech, Offenburg, Germany) microplate reader by using 485 ± 20 and 528 ± 20 nm band-pass filters (for excitation and emission, respectively). In direct FP measurements, a dilution series of the 14-3-3 protein was prepared in 96-well plates (96-well skirted PCR plate, 4ti-0740, 4titude, Wotton, UK) in a 20 mM HEPES pH 7.5 buffer containing 150 mM NaCl, 0.5 mM TCEP, 0.01% Tween 20, 50 nM fluorescently labeled fpB6 peptide, and 100 μM FSC, if indicated. The volume of the dilution series was 40 μl, which was later divided into three technical replicates of 10 μl upon transferring to 384-well micro-plates (low binding microplate, 384 well, E18063G5, Greiner Bio-One, Kremsmünster, Austria). In total, polarization of the probe was measured at eight different protein concentrations (whereas one contained no protein and corresponded to the free peptide). In competitive FP measurements, the same buffer was supplemented with the protein to achieve a complex formation of 60–80%, based on the direct titration. Then, this mixture was used for creating a dilution series of the unlabeled competitor (i.e., the studied peptides) and the measurement was carried out identically as in the direct experiment.
(§5) All FP experiments were done in triplicates. Analysis of FP experiments were carried out using ProFit, an in-house developed, Python-based fitting program. ProFit utilizes a Monte Carlo approach to take into account experimental variability. It generates hundreds of simulated datasets, based on the experimental data variance and fits direct and competitive measurements in pairs.

[2] = molecular target: T2, 14-3-3β (Homo sapiens, UniProt P31946); assay: biochemical; assay type: binding
T2 construct: cDNAs encoding other full-length 14-3-3 isoforms β, τ, η, and σ were obtained as codon-optimized; made in house; host or cells: E. coli BL21(DE3)
T2 sequence (P31946 1-246): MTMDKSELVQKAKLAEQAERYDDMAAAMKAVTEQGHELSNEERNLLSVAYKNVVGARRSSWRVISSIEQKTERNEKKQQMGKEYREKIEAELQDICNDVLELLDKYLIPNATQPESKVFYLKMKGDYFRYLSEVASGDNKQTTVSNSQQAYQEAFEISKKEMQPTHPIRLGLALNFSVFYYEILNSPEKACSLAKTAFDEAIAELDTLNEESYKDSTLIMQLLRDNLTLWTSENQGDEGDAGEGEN
Experimental: as §1, §2, §3, §4, §5

[3] = molecular target: T3, 14-3-3ε (Homo sapiens, UniProt P62258); assay: biochemical; assay type: binding
T3 construct: Plasmids containing the cDNAs of the full-length 14-3-3 isoforms ε, γ, and ζ were received; made in house; host or cells: E. coli BL21(DE3)
T3 sequence (P62258 1-255): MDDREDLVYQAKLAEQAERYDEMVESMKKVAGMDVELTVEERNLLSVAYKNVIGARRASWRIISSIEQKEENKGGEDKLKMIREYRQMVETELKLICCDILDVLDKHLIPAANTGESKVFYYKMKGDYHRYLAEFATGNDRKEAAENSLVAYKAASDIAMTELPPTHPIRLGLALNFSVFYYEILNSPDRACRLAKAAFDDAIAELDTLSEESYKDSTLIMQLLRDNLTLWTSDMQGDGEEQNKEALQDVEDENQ
Experimental: as §1, §2, §3, §4, §5

[4] = molecular target: T4, 14-3-3σ (Homo sapiens, UniProt P31947); assay: biochemical; assay type: binding
T4 construct: cDNAs encoding other full-length 14-3-3 isoforms β, τ, η, and σ were obtained as codon-optimized; made in house; host or cells: E. coli BL21(DE3)
T4 sequence (P31947 1-248): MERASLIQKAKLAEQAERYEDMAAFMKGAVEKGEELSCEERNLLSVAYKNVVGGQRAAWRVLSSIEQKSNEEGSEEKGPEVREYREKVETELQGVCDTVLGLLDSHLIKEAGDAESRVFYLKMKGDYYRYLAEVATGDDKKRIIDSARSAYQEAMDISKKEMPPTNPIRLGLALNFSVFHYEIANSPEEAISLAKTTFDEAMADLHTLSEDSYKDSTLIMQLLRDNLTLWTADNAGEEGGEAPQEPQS
Experimental: as §1, §2, §3, §4, §5

[5] = molecular target: T5, 14-3-3η (Homo sapiens, UniProt Q04917); assay: biochemical; assay type: binding
T5 construct: cDNAs encoding other full-length 14-3-3 isoforms β, τ, η, and σ were obtained as codon-optimized; made in house; host or cells: E. coli BL21(DE3)
T5 sequence (Q04917 1-246): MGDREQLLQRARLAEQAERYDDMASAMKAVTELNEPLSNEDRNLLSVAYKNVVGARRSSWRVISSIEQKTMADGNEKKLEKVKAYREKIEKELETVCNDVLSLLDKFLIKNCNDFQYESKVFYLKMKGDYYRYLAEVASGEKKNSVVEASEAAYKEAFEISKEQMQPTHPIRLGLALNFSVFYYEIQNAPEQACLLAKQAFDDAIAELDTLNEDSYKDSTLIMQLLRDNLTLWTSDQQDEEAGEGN
Experimental: as §1, §2, §3, §4, §5

[6] = molecular target: T6, 14-3-3ζ (Homo sapiens, UniProt P63104); assay: biochemical; assay type: binding
T6 construct: Plasmids containing the cDNAs of the full-length 14-3-3 isoforms ε, γ, and ζ were received; made in house; host or cells: E. coli BL21(DE3)
T6 sequence (P63104 1-245): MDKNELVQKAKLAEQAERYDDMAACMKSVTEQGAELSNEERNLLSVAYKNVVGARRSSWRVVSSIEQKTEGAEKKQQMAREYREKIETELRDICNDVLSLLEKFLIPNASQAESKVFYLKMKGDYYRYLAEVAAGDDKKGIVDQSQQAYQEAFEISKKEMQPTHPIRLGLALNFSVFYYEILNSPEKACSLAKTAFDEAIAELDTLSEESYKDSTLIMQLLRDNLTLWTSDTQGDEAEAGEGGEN
Experimental: as §1, §2, §3, §4, §5

[7] = molecular target: T7, 14-3-3γ (Homo sapiens, UniProt P61981); assay: biochemical; assay type: binding
T7 construct: full-length human 14-3-3 constructs with an N-terminal MBP fusion were used; made in house; host or cells: E. coli BL21(DE3)
T7 sequence (P61981 1-247): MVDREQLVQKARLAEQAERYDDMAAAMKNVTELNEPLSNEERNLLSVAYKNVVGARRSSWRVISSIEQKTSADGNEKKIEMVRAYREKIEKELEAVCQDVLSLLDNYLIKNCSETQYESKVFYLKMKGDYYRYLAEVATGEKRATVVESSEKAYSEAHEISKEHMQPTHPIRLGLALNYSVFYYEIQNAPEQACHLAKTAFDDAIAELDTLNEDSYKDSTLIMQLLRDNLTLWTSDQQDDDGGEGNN
Experimental: as §1, §2, §3, §4, §5

[8] = molecular target: 14-3-3 isoforms; conditions: Figure 4 panel a, literature-curated motifs, unit from the colour scale line, cited from earlier work

Compound	Kd [1] [µM]	Kd [2] [µM]	Kd [3] [µM]	Kd [4] [µM]	Kd [5] [µM]	Kd [6] [µM]	Kd [7] [µM]	Kd ([8]; 14-3-3β, read-out: Binding affinities (KD) of various 14-3-3-binding motifs, 14-3-3β) [µM]	Kd ([8]; 14-3-3γ, read-out: Binding affinities (KD) of various 14-3-3-binding motifs, 14-3-3γ) [µM]	Kd ([8]; 14-3-3ε, read-out: Binding affinities (KD) of various 14-3-3-binding motifs, 14-3-3ε) [µM]	Kd ([8]; 14-3-3ζ, read-out: Binding affinities (KD) of various 14-3-3-binding motifs, 14-3-3ζ) [µM]	Kd ([8]; 14-3-3η, read-out: Binding affinities (KD) of various 14-3-3-binding motifs, 14-3-3η) [µM]	Kd ([8]; 14-3-3σ, read-out: Binding affinities (KD) of various 14-3-3-binding motifs, 14-3-3σ) [µM]	Kd ([8]; 14-3-3τ, read-out: Binding affinities (KD) of various 14-3-3-binding motifs, 14-3-3τ) [µM]
CC(C)[C@H](NC(=O)[C@H](C)NC(=O)[C@@H](NC(=O)[C@H](CCC(=O)O)NC(=O)[C@H](CCCNC(=N)N)NC(=O)[C@H](CCCNC(=N)N)NC(=O)[C@H](CCCNC(=N)N)NC(=O)[C@@H]1CCCN1C(=O)[C@H](CCCCN)NC(=O)[C@H](CO)NC(=O)CCC(=O)NCCCOCCOCCOCCCNC(=O)CCCC[C@@H]1SC[C@@H]2NC(=O)N[C@@H]21)[C@@H](C)OP(=O)(O)O)C(=O)O [pHPV35E6T-6R, E-1A] ({X1-Suc}-SKPRRRE[pT]AV-OH)	5.8 ± 0.4	7.1 ± 0.5	13 ± 2	18.9 ± 1.9	4.8 ± 0.5	7.3 ± 0.4	3.3 ± 0.2							
C-Raf254-264 (RQRSTSTPNVH; UniProt P04049 254-264, looked up, fragment)								9.5	3.7	15.1	16.6	6.3	67.1	26.6

— PMC7961048, “Hierarchized phosphotarget binding by the seven human 14-3-3 isoforms” (Nature Communications, 2021)
